The text below walks through data of patent US8796256B2 (Janssen Pharmaceutica NV, priority 2010, dated 2014).

For the assay, the target named is T1, ERR1 (also known as ERR-α or ERR-1) (Homo sapiens, UniProt P11474).
T1 sequence (P11474 193-421 limits assumed): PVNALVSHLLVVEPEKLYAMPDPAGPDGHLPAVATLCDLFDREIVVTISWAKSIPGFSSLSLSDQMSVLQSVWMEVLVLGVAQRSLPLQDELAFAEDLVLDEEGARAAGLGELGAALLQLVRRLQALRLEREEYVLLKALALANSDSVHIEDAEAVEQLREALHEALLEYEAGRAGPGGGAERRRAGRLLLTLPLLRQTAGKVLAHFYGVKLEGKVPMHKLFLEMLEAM
The assay can be described thus: TR-FRET assay (disruption of co-activator peptide binding to ERR1 LBD). Particulars: 6 nM 6His-ERR1LBD, 6 nM GST-SRC-2 peptide; average of 3 independent experiments. Type of assay: biochemical. In a few lines: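 Homogeneous TR-FRET measuring displacement of GST-hSRC2 co-activator peptide (6 nM) from His-tagged ERR1 LBD (6 nM), detected with α-GST Eu cryptate (30 nM) and α-His-XL665 (7.5 nM). Buffer 25 mM Tris pH 8, 2.5 mM Hepes, 20 mM KCl, 1 mM DTT, 0.05 mg/mL delipidated BSA; equilibration 4-18 h at 25° C. Hyperbolic dose-response fit, mean of 3 experiments.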
(In general: Time-resolved FRET reads energy transfer from a long-lived donor to a nearby acceptor.)
The molecule `O=C(O)CN1C(=O)S/C(=C\c2ccc3c(ccn3Cc3ccc(Cl)cc3C(F)(F)F)c2)C1=O` [Compound 253, [(5Z)-5-({1-[4-Chloro-2-(trifluoromethyl)benzyl]-1H-indol-5-yl}methylidene)-2,4-dioxo-1,3-thiazolidin-3-yl]acetic acid] yielded an EC50 of 120 nM.
On to `COC(=O)C1(N2C(=O)S/C(=C\c3ccc4c(cnn4Cc4ccc(Cl)cc4C(F)(F)F)c3)C2=O)CCOCC1` [Compound 226, Methyl 4-[(5Z)-5-({1-[4-chloro-2-(trifluoromethyl)benzyl]-1H-indazol-5-yl}methylidene)-2,4-dioxo-1,3-thiazolidin-3-yl]tetrahydro-2H-pyran-4-carboxylate], for which the EC50 was found to be 30 nM.
In turn, `NS(=O)(=O)CN1C(=O)S/C(=C\c2ccc3c(cnn3Cc3ccc(C(F)(F)F)cc3C(F)(F)F)c2)C1=O` [Compound 68] gave a half-maximal effective concentration (EC50) of 124 nM.
In the case of `N=C(N)NC(=O)CN1C(=O)S/C(=C\c2ccc3c(cnn3Cc3ccc(Cl)cc3C(F)(F)F)c2)C1=O` [Compound 56, N-Carbamimidoyl-2-[(5Z)-5-({1-[4-chloro-2-(trifluoromethyl)benzyl]-1H-indazol-5-yl}methylidene)-2,4-dioxo-1,3-thiazolidin-3-yl]acetamide] it was 22 nM; in that of `O=C(O)C(Cc1cccnc1)N1C(=O)S/C(=C\c2ccc3c(cnn3Cc3ccc(Cl)cc3C(F)(F)F)c2)C1=O` (stereo not drawn) [Compound 225, 2-[(5Z)-5-({1-[4-Chloro-2-(trifluoromethyl)benzyl]-1H-indazol-5-yl}methylidene)-2,4-dioxo-1,3-thiazolidin-3-yl]-3-pyridin-3-ylpropanoic acid], 32 nM.
Consider `COc1ccc(Cn2ncc3cc(/C=C4\SC(=O)N(CCN5CCCC5)C4=O)ccc32)c(C(F)(F)F)c1` [Compound 17, (5Z)-5-({1-[4-Methoxy-2-(trifluoromethyl)benzyl]-1H-indazol-5-yl}methylidene)-3-(2-pyrrolidin-1-ylethyl)-1,3-thiazolidine-2,4-dione], for which the response was half-maximal at 46 nM (EC50).
For the molecule `CCOC(=O)CN1C(=O)S/C(=C\c2ccc3c(c2)nnn3Cc2ccc(Cl)cc2C(F)(F)F)C1=O` [Compound 259, Ethyl [(5Z)-5-({1-[4-chloro-2-(trifluoromethyl)benzyl]-1H-benzotriazol-5-yl}methylidene)-2,4-dioxo-1,3-thiazolidin-3-yl]acetate], the EC50 stood at 22 nM.
The molecule `O=C1S/C(=C\c2ccc3c(cnn3Cc3ccc(Cl)cc3C(F)(F)F)c2)C(=O)N1C1CNC1` [Compound 102, (5Z)-3-Azetidin-3-yl-5-({1-[4-chloro-2-(trifluoromethyl)benzyl]-1H-indazol-5-yl}methylidene)-1,3-thiazolidine-2,4-dione] registered an EC50 of 37 nM.
Under `CN1CCN(N2C(=O)S/C(=C\c3ccc4c(cnn4Cc4ccc(Cl)cc4C(F)(F)F)c3)C2=O)CC1` [Compound 349, (5Z)-5-({1-[4-Chloro-2-(trifluoromethyl)benzyl]-1H-indazol-5-yl}methylidene)-3-(4-methylpiperazin-1-yl)-1,3-thiazolidine-2,4-dione] stands 24 nM; under `O=C1CCNCC1N1C(=O)S/C(=C\c2ccc3c(cnn3Cc3ccc(Cl)cc3C(F)(F)F)c2)C1=O` (stereo not drawn) [Compound 343, (5Z)-5-({1-[4-Chloro-2-(trifluoromethyl)benzyl]-1H-indazol-5-yl}methylidene)-3-(4-oxopiperidin-3-yl)-1,3-thiazolidine-2,4-dione], 27 nM.
`CN(C)C1(CN2C(=O)S/C(=C\c3ccc4c(cnn4Cc4ccc(Cl)cc4C(F)(F)F)c3)C2=O)CCC1` [Compound 315, (5Z)-5-({1-[4-Chloro-2-(trifluoromethyl)benzyl]-1H-indazol-5-yl}methylidene)-3-{[1-(dimethylamino)cyclobutyl]methyl}-1,3-thiazolidine-2,4-dione] showed an EC50 of 71 nM.
In turn, `O=C1S/C(=C\c2ccc3c(cnn3Cc3ccc(Cl)cc3C(F)(F)F)c2)C(=O)N1CCN1CCN[C@@H](CO)C1` [Compound 282, (5Z)-5-({1-[4-Chloro-2-(trifluoromethyl)benzyl]-1H-indazol-5-yl}methylidene)-3-{2-[(3R)-3-(hydroxymethyl)piperazin-1-yl]ethyl}-1,3-thiazolidine-2,4-dione] showed an EC50 of 361 nM.
In the case of `O=C(O)C1CC(N2C(=O)S/C(=C\c3ccc4c(cnn4Cc4ccc(C(F)(F)F)cc4C(F)(F)F)c3)C2=O)C1` (stereo not drawn) [Compound 70, 3-[(5Z)-5-({1-[2,4-Bis(trifluoromethyl)benzyl]-1H-indazol-5-yl}methylidene)-2,4-dioxo-1,3-thiazolidin-3-yl]cyclobutanecarboxylic acid] it was 48 nM; in that of `CN1CCCC1CCN1C(=O)S/C(=C\c2ccc3c(cnn3Cc3ccc(Cl)cc3C(F)(F)F)c2)C1=O` (stereo not drawn) [Compound 140, (5Z)-5-({1-[4-Chloro-2-(trifluoromethyl)benzyl]-1H-indazol-5-yl}methylidene)-3-[2-(1-methylpyrrolidin-2-yl)ethyl]-1,3-thiazolidine-2,4-dione], 32 nM.
On to `O=C1S/C(=C\c2ccc3c(cnn3Cc3ccc(C(F)(F)F)cc3C(F)(F)F)c2)C(=O)N1C[C@H]1CCCN1` [Compound 82, (5Z)-5-({1-[2,4-Bis(trifluoromethyl)benzyl]-1H-indazol-5-yl}methylidene)-3-[(2R)-pyrrolidin-2-ylmethyl]-1,3-thiazolidine-2,4-dione], for which it took 81 nM to reach a half-maximal effect (EC50).
In the case of `CN1CCC(N2C(=O)S/C(=C\c3ccc4c(cnn4Cc4ccc(Cl)cc4C(F)(F)F)c3)C2=O)C(=O)C1` (stereo not drawn) [Compound 342, (5Z)-5-({1-[4-Chloro-2-(trifluoromethyl)benzyl]-1H-indazol-5-yl}methylidene)-3-(1-methyl-3-oxopiperidin-4-yl)-1,3-thiazolidine-2,4-dione] it was 65 nM.
Under `N[C@H]1C[C@H](CN2C(=O)S/C(=C\c3ccc4c(cnn4Cc4ccc(Cl)cc4C(F)(F)F)c3)C2=O)C1` [Compound 100, (5Z)-3-[(trans-3-Aminocyclobutyl)methyl]-5-({1-[4-chloro-2-(trifluoromethyl)benzyl]-1H-indazol-5-yl}methylidene)-1,3-thiazolidine-2,4-dione] stands 46 nM.
`O=C1S/C(=C\c2ccc3c(cnn3Cc3ccc(F)cc3C(F)(F)F)c2)C(=O)N1[C@@H]1CCNC[C@H]1O` (relative stereo) [Compound 272, (5Z)-5-({1-[4-Fluoro-2-(trifluoromethyl)-benzyl]-1H-indazol-5-yl}methylidene)-3-[trans-3-hydroxypiperidin-4-yl]-1,3-thiazolidine-2,4-dione] yielded a half-maximal effective concentration (EC50) of 153 nM. Against the preceding molecule, the EC50 is about 3.3-fold higher.
In the case of `O=C(O)CN1C(=O)S/C(=C\c2ccc3c(ccn3Cc3ccc(F)cc3C(F)(F)F)c2)C1=O` [Compound 255, [(5Z)-5-({1-[4-Fluoro-2-(trifluoromethyl)benzyl]-1H-indol-5-yl}methylidene)-2,4-dioxo-1,3-thiazolidin-3-yl]acetic acid] it was 1020 nM; in that of `CC(C)N1CC[C@@H](N2C(=O)S/C(=C\c3ccc4c(cnn4Cc4ccc(Cl)cc4C(F)(F)F)c3)C2=O)[C@H](F)C1` (relative stereo) [Compound 328, (5Z)-5-({1-[4-Chloro-2-(trifluoromethyl)benzyl]-1H-indazol-5-yl}methylidene)-3-[trans-3-fluoro-1-(1-methylethyl)piperidin-4-yl]-1,3-thiazolidine-2,4-dione], 152 nM.
In the case of `O=C1S/C(=C\c2ccc3c(cnn3Cc3ccc(Cl)cc3C(F)(F)F)c2)C(=O)N1OCCN1CCCC1` [Compound 289, (5Z)-5-({1-[4-Chloro-2-(trifluoromethyl)benzyl]-1H-indazol-5-yl}methylidene)-3-(2-pyrrolidin-1-ylethoxy)-1,3-thiazolidine-2,4-dione] it was 17 nM; in that of `O=C1S/C(=C\c2ccc3c(cnn3Cc3ccc(Cl)cc3C(F)(F)F)c2)C(=O)N1Cc1cscn1` [Compound 93], 14 nM.
Under `O=C(O)CN1C(=O)S/C(=C\c2ccc3c(cnn3[C@@H]3CCc4cc(Cl)ccc43)c2)C1=O` [Compound 179, [(5Z)-5-({1-[(1R)-5-Chloro-2,3-dihydro-1H-inden-1-yl]-1H-indazol-5-yl}methylidene)-2,4-dioxo-1,3-thiazolidin-3-yl]acetic acid] stands 3450 nM; under `NC(CN1C(=O)S/C(=C\c2ccc3c(cnn3Cc3ccc(Cl)cc3C(F)(F)F)c2)C1=O)C(F)(F)F` (stereo not drawn) [Compound 169, (5Z)-3-(2-Amino-3,3,3-trifluoropropyl)-5-({1-[4-chloro-2-(trifluoromethyl)benzyl]-1H-indazol-5-yl}methylidene)-1,3-thiazolidine-2,4-dione], 32 nM.
In turn, `O=C1S/C(=C\c2ccc3c(cnn3Cc3ccc(Cl)cc3C(F)(F)F)c2)C(=O)N1C1CCCNC1` (stereo not drawn) [Compound 124, (5Z)-5-({1-[4-Chloro-2-(trifluoromethyl)benzyl]-1H-indazol-5-yl}methylidene)-3-piperidin-3-yl-1,3-thiazolidine-2,4-dione] showed an EC50 of 51 nM.
In the case of `O=C1S/C(=C\c2ccc3c(cnn3Cc3ccc(Cl)cc3C(F)(F)F)c2)C(=O)N1Cc1nccs1` [Compound 92, (5Z)-5-({1-[4-Chloro-2-(trifluoromethyl)benzyl]-1H-indazol-5-yl}methylidine)-3-(1,3-thiazol-2-ylmethyl)-1,3-thiazolidine-2,4-dione] it was 24 nM.
`CN(C)CCN1C(=O)S/C(=C\c2ccc3c(cnn3Cc3ccc(F)cc3C(F)(F)F)c2)C1=O` [Compound 5, (5Z)-3-[2-(Dimethylamino)ethyl]-5-[(1-{[4-fluoro-2-(trifluoromethyl)phenyl]methyl}-1H-indazol-5-yl)methylidene]-1,3-thiazolidine-2,4-dione]: a half-maximal effect (EC50) was put at 180 nM.

As usually defined, the EC50 is the concentration needed to bring the measured effect to its halfway point.
